pIC50: −log10 of the molar value. Like-named read-outs stand apart in the source and are kept apart here.
Assays:
SARS-CoV-2 [1] = system: SARS-CoV-2
HCoV-229E = experiment: microbe, parasite or virus in culture; assay type: cell-based, Homo sapiens sapiens; details: Human coronavirus 229E; for IC50: Huh7.5, read-out: IC50 (µM), HCoV 229E
in vitro [2] = details: human
in vitro [3] = details: for viability: Anti-SARS-CoV-2 screening on Calu-3 cells: viability [% of control], Calu-3 cells
SARS-CoV-2 [4] = details: Calu-3 cells, screening dose 5 µM, 48 hours post-inoculation
[5] = Huh-7.5/F-Luc cells, maximum tested dose 5 µM
[6] = Calu-3 cells, immunofluorescence imaging

| Structure (SMILES) | CC50 (µM) (Huh-7.5/F-Luc cells; [5]) | Anti-SARS-CoV-2 screening on Calu-3 cells: intracellular SARS-CoV-2 infection measured via immunofluorescence imaging [% of control] (SARS-CoV-2 [1]; [6]) | IC50 (HCoV-229E) | viability at 5 µM (in vitro [2]) | viability (in vitro [3]) | virus load in the culture fluid (SARS-CoV-2 [4]) | CC50 (µM) (Huh-7.5/F-Luc cells; Huh-7.5 cells, dose series, maximum tested dose 5 µM) | outcome against confirmation criteria of the SARS-CoV-2 counter-screen (<50% infected cell, >75% total cells) (SARS-CoV-2 [1]; Calu-3 cells, single dose of 5 µM) | pIC50 (HCoV-229E; Huh7.5) | CC50 (µM) (Huh-7.5/F-Luc cells) | Anti-SARS-CoV-2 screening on Calu-3 cells: intracellular SARS-CoV-2 infection measured via immunofluorescence imaging [% of control] (SARS-CoV-2 [1]) | viability at 48 h, 5 µM (in vitro [3]) |
| --- | --- | --- | --- | --- | --- | --- | --- | --- | --- | --- | --- | --- |
| CC(OCCN1CCCCCC1)(c1ccccc1)c1ccc(Cl)cc1 (centres unmarked) [RFM-000-944-9] | greater than maximum tested dose | 104.31 % of control | 1.87 µM | 146% | 95.3% |  |  |  |  |  |  |  |
| COCCN1CCN(Cc2ccc(-c3n[nH]c4c3C(=O)c3c(NC(=O)NN5CCOCC5)cccc3-4)cc2)CC1 [RGB-286638, reference compound] |  | 123.82 % of control |  |  | 19% | reduced virus load | greater than maximum tested dose | did not meet our stringent confirmation criteria | 6.92 |  |  |  |
| Cc1nc(Nc2ncc(N3CCN(C)[C@H](C)C3)c(Nc3cc(C)n(C)n3)n2)cc(C2CC2)c1F [RFM-012-989-5] | greater than maximum tested dose | 114.63 % of control | 1.97 µM | 125% | 114% |  |  |  |  |  |  |  |
| CC(C)C(=O)c1ccc(OCCCN2CCC(C(O)(c3ccc(F)cc3)c3ccc(F)cc3)CC2)cc1 [RFM-010-056-1] | greater than maximum tested dose | 122.17 % of control | 1.47 µM | 119% | 93.4% |  |  |  |  |  |  |  |
| CN(C)CCCN1c2ccccc2Sc2ccc(C(F)(F)F)cc21 [RFM-004-217-1] |  |  | 1.19 µM | 159% |  |  |  |  |  | greater than maximum tested dose | 110.23 % of control | 72.7% |
| COc1cc(Nc2ncc(F)c(Nc3ccc4c(n3)N(COP(=O)(O)O)C(=O)C(C)(C)O4)n2)cc(OC)c1OC [RFM-004-140-7] | greater than maximum tested dose | 134.69 % of control | 4.09 µM | 93.7% |  |  |  |  |  |  |  | 86.2% |
| CC(Cc1ccccc1)NCCC(c1ccccc1)c1ccccc1 (centres unmarked) [RFM-000-835-5] | greater than maximum tested dose | 102.68 % of control | 1.53 µM | 140% |  |  |  |  |  |  |  | 102% |
| OC1CCN(CCCN2c3ccccc3Sc3ccc(C(F)(F)F)cc32)C1 (centres unmarked) [RFM-010-589-5] | greater than maximum tested dose | 102.40 % of control | 1.4 µM | 146% | 110% |  |  |  |  |  |  |  |
| CCOC(=O)/C=C/[C@H](C[C@@H]1CCNC1=O)NC(=O)[C@@H](CC(=O)[C@@H](NC(=O)c1cc(C)on1)C(C)C)Cc1ccc(F)cc1 [RFM-010-414-3] | greater than maximum tested dose | 93.65 % of control | 4.19 µM | 94.6% | 100% |  |  |  |  |  |  |  |
| c1ccc2c(c1)Sc1ccccc1N2CC1CN2CCC1CC2 (centres unmarked) [RFM-000-842-4] | greater than maximum tested dose | 112.52 % of control | 1.6 µM | 166% |  |  |  |  |  |  |  | 110% |
| COCCN1CCC(N(Cc2ccc(-c3ccc(C(F)(F)F)cc3)cc2)C(=O)c2ccco2)CC1 [RFM-012-120-0] | greater than maximum tested dose | 87.75 % of control | 1.61 µM | 130% | 94.4% |  |  |  |  |  |  |  |
| CCc1ccc2c(c1)N(CC(C)CN(C)C)c1ccccc1S2 (centres unmarked) [RFM-012-636-3] | greater than maximum tested dose | 133.66 % of control | 1.71 µM | 138% |  |  |  |  |  |  |  | 108% |
| COc1cc2c(cc1NS(=O)(=O)c1ccc(-c3ccc(Cl)s3)cc1)CCN(C)CC2 [RFM-010-759-5] | greater than maximum tested dose | 107.82 % of control | 1.73 µM | 133% | 92.9% |  |  |  |  |  |  |  |
| COc1cccc(CCc2ccccc2OCC[C@@H]2C[C@@H](O)CN2C)c1 [RFM-011-187-5] | greater than maximum tested dose | 105.26 % of control | 2.43 µM | 131% | 102% |  |  |  |  |  |  |  |

Reference: PMC10916382, “Repurposing screen identifies novel candidates for broad-spectrum coronavirus antivirals and druggable host targets” (Antimicrobial Agents and Chemotherapy, 2024)
